Test results reported in ChEMBL document CHEMBL3885881, “DrugMatrix”.

Species on record: Rattus norvegicus
Format: toxicity, organism-based, Sprague-Dawley
Conditions: in vivo, po, 24 h, route oral GAVAGE, time 1 day, vehicle 100 % SALINE; for ABSOLUTE BASOPHIL / ABSOLUTE EOSINOPHIL / ABSOLUTE LYMPHOCYTE / ABSOLUTE MONOCYTE / BASOPHIL / EOSINOPHIL / ERYTHROCYTE COUNT / HEMATOCRIT / HEMOGLOBIN / LEUKOCYTE COUNT / LYMPHOCYTE / MEAN CORPUSCULAR HEMOGLOBIN / MEAN CORPUSCULAR HEMOGLOBIN CONCENTRATION / MEAN CORPUSCULAR VOLUME / MONOCYTE / NEUTROPHIL / PLATELET COUNT: tissue Blood
[1] = 0 mg/kg, vehicle control, dose level Control
[2] = 0 mg/kg, vehicle control, tissue Plasma, dose level Control
[3] = 2 mg/kg, tissue Plasma, dose level High

Description: DrugMatrix - Regimen: Single

## COc1cccc2c1C(=O)c1c(O)c3c(c(O)c1C2=O)C[C@@](O)(C(C)=O)C[C@@H]3O[C@H]1C[C@H](N)[C@H](O)[C@H](C)O1 [DAUNORUBICIN]
[1]
  ABSOLUTE BASOPHIL: 73.3 cells/µL
  ABSOLUTE EOSINOPHIL: 86.7 cells/µL
  ABSOLUTE LYMPHOCYTE: 8400 cells/µL
  ABSOLUTE MONOCYTE: 350 cells/µL
  BASOPHIL: 0.63%
  EOSINOPHIL: 0.73%
  ERYTHROCYTE COUNT: 6.55 x10E6/uL
  HEMATOCRIT: 42.83%
  HEMOGLOBIN: 13.6 G/DL
  LEUKOCYTE COUNT: 11.33 x10E3/uL
  LYMPHOCYTE: 74.77%
  MEAN CORPUSCULAR HEMOGLOBIN: 20.77 pg
  MEAN CORPUSCULAR HEMOGLOBIN CONCENTRATION: 31.7 G/DL
  MEAN CORPUSCULAR VOLUME: 65.53 fL
  MONOCYTE: 3%
  NEUTROPHIL: 20.2%
  PLATELET COUNT: 1394.33 x10E3/uL
[2]
  ALANINE AMINOTRANSFERASE: 34 u/L
  ALBUMIN: 4.03 G/DL
  ALKALINE PHOSPHATASE: 345.33 u/L
  ASPARTATE AMINOTRANSFERASE: 69.67 u/L
  BLOOD UREA NITROGEN: 14.33 mg/dL
  CARBON DIOXIDE: 46 mmol/L
  CHLORIDE: 102.67 MEQ/L
  CHOLESTEROL: 85 mg/dL
  CREATINE PHOSPHOKINASE: 292 u/L
  CREATININE: 0.2 mg/dL
  GLUCOSE: 168 mg/dL
  LIPASE: 13 u/L
  PHOSPHORUS: 11.2 mg/dL
  POTASSIUM: 7.07 MEQ/L
  SODIUM: 144.67 MEQ/L
  TOTAL BILIRUBIN: 0.27 mg/dL
  TOTAL PROTEIN: 6.57 G/DL
  URIC ACID: 0.73 mg/dL
2 mg/kg, dose level High
  ABSOLUTE BASOPHIL: 30 cells/µL
  ABSOLUTE EOSINOPHIL: 60 cells/µL
  ABSOLUTE LYMPHOCYTE: 7160 cells/µL
  ABSOLUTE MONOCYTE: 260 cells/µL
  BASOPHIL: 0.33%
  EOSINOPHIL: 0.67%
  ERYTHROCYTE COUNT: 6.43 x10E6/uL
  HEMATOCRIT: 42.57%
  HEMOGLOBIN: 13.5 G/DL
  LEUKOCYTE COUNT: 9.23 x10E3/uL
  LYMPHOCYTE: 77.03%
  MEAN CORPUSCULAR HEMOGLOBIN: 21.03 pg
  MEAN CORPUSCULAR HEMOGLOBIN CONCENTRATION: 31.73 G/DL
  MEAN CORPUSCULAR VOLUME: 66.3 fL
  MONOCYTE: 2.83%
  NEUTROPHIL: 18.5%
  PLATELET COUNT: 1328.67 x10E3/uL
[3]
  ALANINE AMINOTRANSFERASE: 37.33 u/L
  ALBUMIN: 3.93 G/DL
  ALKALINE PHOSPHATASE: 397.67 u/L
  ASPARTATE AMINOTRANSFERASE: 67.67 u/L
  BLOOD UREA NITROGEN: 13.67 mg/dL
  CARBON DIOXIDE: 39.33 mmol/L
  CHLORIDE: 104.67 MEQ/L
  CHOLESTEROL: 84 mg/dL
  CREATINE PHOSPHOKINASE: 230.33 u/L
  CREATININE: 0.27 mg/dL
  GLUCOSE: 179 mg/dL
  LACTATE DEHYDROGENASE: 60.33 u/L
  LIPASE: 9.67 u/L
  PHOSPHORUS: 11.57 mg/dL
  POTASSIUM: 6.13 MEQ/L
  SODIUM: 146 MEQ/L
  TOTAL BILIRUBIN: 0.2 mg/dL
  TOTAL PROTEIN: 6.37 G/DL
  URIC ACID: 1 mg/dL
